Measured values as given in patent publication US20260265190A1, “AROMATIC COMPOUNDS FOR USE AS PROTEIN PHOSPHATASE 2A (PP2A) MODULATORS” (RAPPTA THERAPEUTICS OY, priority 2022, published 2026).

Tests used:
[1] = test system: LNCaP cells; experiment: Cell viability assay (MTS), LNCaP cell line; assay type: cell-based; details: Homo sapiens, 48 hours
Description: LNCaP cell line was used for the cell viability assay. LNCaP cells were plated in 96-well plates at a density of 5000 cells per well. After 24 hours of plating, the cells were treated with increasing doses of compound (e.g., compounds 1-38) ranging from 1 μM to 80 μM. Relative cell numbers were analyzed after 48 hours using 3-(4,5-dimethylthiazol-2-yl)-5-(3-carboxymethoxyphenyl)-2-(4-sulfophenyl)-2H-tetrazolium (MTS) assay (Promega) according to the manufacturer's instructions.
(§1) The cell viability data was analyzed with GraphPad Prism software. The values were log transformed and analyzed with non-linear regression (curve-fit) using log (inhibitor) vs. response—variable slope (four parameters) and constraining the bottom to equal zero. Unless otherwise indicated, the GI50 values provided in Table 1 correspond to the LNCaP cell viability assays.

[2] = test system: HCC1937 cells; experiment: Cell viability assay (MTS), HCC1937 cell line; assay type: cell-based; details: Homo sapiens, HCC1937 cell line (footnote a), 48 hours
Description: HCC1937 cells are plated in a 96 well plate format at a density of 10,000 cells per well. After incubation overnight, cells are treated with a compound (e.g., compound 5) at the following concentrations: 80, 40, 20, 10, 5, 2.5, 1.25 μM. Compound concentrations are prepared in RPMI via serial dilutions from a starting stock of 80 mM. Forty-eight (48) hours after compound treatment, cell viability is assessed using the Promega CellTiter 96 aqueous one proliferation assay (Promega G3582, MTS assay) according to manufacturer's protocol.
as §1

Question: For `O=S(=O)(NC1(c2ccc(F)c(F)c2)CCNC1)c1ccc(OC(F)(F)F)cc1` (stereo not shown) [Example 1, N-(3-(3,4-difluorophenyl)pyrrolidin-3-yl)-4-(trifluoromethoxy)benzenesulfonamide], which GI50 [1] is on record?
Answer: 25.7 µM

Question: Which GI50 [1] does the source give for `O=S(=O)(NC1(c2cc(F)cc(F)c2)CCNCC1)c1ccc(OC(F)(F)F)cc1` [Example 2, N-(4-(3,5-difluorophenyl)piperidin-4-yl)-4-(trifluoromethoxy)benzenesulfonamide] here?
Answer: 15.5 µM

Question: How did the GI50 [1] turn out when `O=S(=O)(NC1(c2ccc(Cl)nc2)CCNCC1)c1ccc(OC(F)(F)F)cc1` [Example 3, N-(4-(6-chloropyridin-3-yl)piperidin-4-yl)-4-(trifluoromethoxy)benzenesulfonamide] was run?
Answer: 69.9 µM

Question: `Cc1cc(C2(NS(=O)(=O)c3ccc(OC(F)(F)F)cc3)CCNCC2)ccc1Cl` [Example 4, N-(4-(4-chloro-3-methylphenyl)piperidin-4-yl)-4-(trifluoromethoxy)benzenesulfonamide] was tested. Which GI50 [1] did it give?
Answer: 6.76 µM

Question: With `CC(C)Oc1ccc(S(=O)(=O)NC2(c3ccc(Cl)cn3)CCNCC2)cn1` [Example 5, N-(4-(5-chloropyridin-2-yl)piperidin-4-yl)-6-isopropoxypyridine-3-sulfonamide] as the compound, how does the GI50 [2] read?
Answer: 51.4 µM

Question: `O=S(=O)(NC1(c2ccccc2)CCC2(CC2)NC1)c1ccc(OC(F)(F)F)cc1` (stereo not shown) [Example 6, N-(6-phenyl-4-azaspiro[2.5]octan-6-yl)-4-(trifluoromethoxy)benzenesulfonamide] was tested. Which GI50 [1] did it give?
Answer: 57.5 µM

Question: For `CC(C)Oc1ccc(S(=O)(=O)NC2(c3ccc(F)c(F)c3)CCNCC2)cn1` [Example 7, N-(4-(3,4-difluorophenyl)piperidin-4-yl)-6-isopropoxypyridine-3-sulfonamide], which GI50 [1] is on record?
Answer: 36.8 µM

Question: `CNc1cc(S(=O)(=O)NC2(c3ccc(Cl)cc3)CCNCC2)ccc1OC(F)(F)F` [Example 8, N-(4-(4-chlorophenyl)piperidin-4-yl)-3-(methylamino)-4-(trifluoromethoxy)benzenesulfonamide] was tested. Which GI50 [1] did it give?
Answer: 25.2 µM

Question: Which GI50 [1] does the source give for `O=S(=O)(NC1(c2cc(Cl)ncc2Cl)CCNCC1)c1ccc(OC(F)(F)F)cc1` [Example 9, N-(4-(2,5-dichloropyridin-4-yl)piperidin-4-yl)-4-(trifluoromethoxy)benzenesulfonamide] here?
Answer: 28.8 µM

Question: How did the GI50 [1] turn out when `O=S(=O)(NC(c1ccccc1)C1CCNCC1)c1ccc(OC(F)(F)F)cc1` (stereo not shown) [Example 10, N-(phenyl(piperidin-4-yl)methyl)-4-(trifluoromethoxy)benzenesulfonamide] was run?
Answer: 20.5 µM

Question: Which GI50 [1] does the source give for `O=S(=O)(N[C@@H](c1ccccc1)C1CCNCC1)c1ccc(OC(F)(F)F)cc1` [Example 11, (R)-N-(phenyl(piperidin-4-yl)methyl)-4-(trifluoromethoxy)benzenesulfonamide] here?
Answer: 24.7 µM

Question: For `O=S(=O)(N[C@H](c1ccccc1)C1CCNCC1)c1ccc(OC(F)(F)F)cc1` [Example 12, (S)-N-(phenyl(piperidin-4-yl)methyl)-4-(trifluoromethoxy)benzenesulfonamide], which GI50 [1] is on record?
Answer: 27.1 µM

Question: `O=S(=O)(N[C@@H](c1ccc(Cl)cc1)C1CCNCC1)c1ccc(OC(F)(F)F)cc1` [Example 13, (R)-N-((4-chlorophenyl)(piperidin-4-yl)methyl)-4-(trifluoromethoxy)benzenesulfonamide] was tested. Which GI50 [1] did it give?
Answer: 10 µM

Question: How did the GI50 [1] turn out when `O=S(=O)(N[C@H](c1ccc(Cl)cc1)C1CCNCC1)c1ccc(OC(F)(F)F)cc1` [Example 14, (S)-N-((4-chlorophenyl)(piperidin-4-yl)methyl)-4-(trifluoromethoxy)benzenesulfonamide] was run?
Answer: 11.3 µM

Question: `O=S(=O)(N[C@H](c1ccc(Cl)cn1)C1CCNCC1)c1ccc(OC(F)(F)F)cc1` [Example 15, (S)-N-((5-chloropyridin-2-yl)(piperidin-4-yl)methyl)-4-(trifluoromethoxy)benzenesulfonamide] was tested. Which GI50 [2] did it give?
Answer: 48.7 µM

Question: `CC(C)Oc1ccc(S(=O)(=O)N[C@@H](c2ccc(Cl)cc2)C2CCNCC2)cn1` [Example 16, (R)-N-((4-chlorophenyl)(piperidin-4-yl)methyl)-6-isopropoxypyridine-3-sulfonamide] was tested. Which GI50 [1] did it give?
Answer: 23.4 µM

Question: How did the GI50 [1] turn out when `CC(C)Oc1ccc(S(=O)(=O)N[C@H](c2ccc(Cl)cc2)C2CCNCC2)cn1` [Example 17, (S)-N-((4-chlorophenyl)(piperidin-4-yl)methyl)-6-isopropoxypyridine-3-sulfonamide] was run?
Answer: 26.4 µM

Question: `CC(C)Oc1ccc(S(=O)(=O)N[C@@H](c2ccccc2)C2CCNCC2)cn1` [Example 18, (R)-6-isopropoxy-N-(phenyl(piperidin-4-yl)methyl)pyridine-3-sulfonamide] was tested. Which GI50 [2] did it give?
Answer: 74.3 µM

Question: With `CC(C)Oc1ccc(S(=O)(=O)N[C@H](c2ccccc2)C2CCNCC2)cn1` [Example 19, (S)-6-isopropoxy-N-(phenyl(piperidin-4-yl)methyl)pyridine-3-sulfonamide] as the compound, how does the GI50 [2] read?
Answer: 74.5 µM

Question: Which GI50 [1] does the source give for `O=S(=O)(NC(CN1CCNCC1)c1ccc(F)cc1F)c1ccc(OC(F)(F)F)cc1` (stereo not shown) [Example 20, N-(1-(2,4-difluorophenyl)-2-(piperazin-1-yl)ethyl)-4-(trifluoromethoxy)benzenesulfonamide] here?
Answer: 27.1 µM

Question: Which GI50 [1] does the source give for `O=S(=O)(NC(CN1CCNCC1)c1ccc(F)c(F)c1)c1ccc(OC(F)(F)F)cc1` (stereo not shown) [Example 21, N-(1-(3,4-difluorophenyl)-2-(piperazin-1-yl)ethyl)-4-(trifluoromethoxy)benzenesulfonamide] here?
Answer: 33.8 µM

Question: How did the GI50 [1] turn out when `CC(C)Oc1ccc(S(=O)(=O)NC(CN2CCNCC2)c2ccc(Cl)cc2)cn1` (stereo not shown) [Example 22, N-(1-(4-chlorophenyl)-2-(piperazin-1-yl)ethyl)-6-isopropoxypyridine-3-sulfonamide] was run?
Answer: 51.1 µM

Question: Which GI50 [1] does the source give for `Nc1cc(S(=O)(=O)NC(CN2CCNCC2)c2ccc(Cl)cc2)ccc1OC(F)(F)F` (stereo not shown) [Example 23, 3-amino-N-(1-(4-chlorophenyl)-2-(piperazin-1-yl)ethyl)-4-(trifluoromethoxy)benzenesulfonamide] here?
Answer: 30.8 µM

Question: Which GI50 [2] does the source give for `CC(C)Oc1ccc(S(=O)(=O)NC(CN2CCNCC2)c2ccc(F)c(F)c2)cn1` (stereo not shown) [Example 24, N-(1-(3,4-difluorophenyl)-2-(piperazin-1-yl)ethyl)-6-isopropoxypyridine-3-sulfonamide] here?
Answer: 27 µM

Question: `O=S(=O)(N[C@H](CN1CCC[C@H](F)C1)c1ccc(F)cc1)c1ccc(OC(F)(F)F)cc1` [Example 26, N-((S)-1-(4-fluorophenyl)-2-((S)-3-fluoropiperidin-1-yl)ethyl)-4-(trifluoromethoxy)benzenesulfonamide] was tested. Which GI50 [1] did it give?
Answer: 47.5 µM

Question: For `O=S(=O)(N[C@H](CN1CC(N2CCC2)C1)c1ccc(F)cc1)c1ccc(OC(F)(F)F)cc1` [Example 27, (S)-N-(2-([1,3′-biazetidin]-1′-yl)-1-(4-fluorophenyl)ethyl)-4-(trifluoromethoxy)benzenesulfonamide], which GI50 [1] is on record?
Answer: 24.4 µM

Question: With `CN(C)CC(NS(=O)(=O)c1ccc(Oc2cccc(C(F)(F)F)c2)cc1)c1ccc(Cl)c(Cl)c1` (stereo not shown) [Example 28, N-(1-(3,4-dichlorophenyl)-2-(dimethylamino)ethyl)-4-(3-(trifluoromethyl)phenoxy)benzenesulfonamide] as the compound, how does the GI50 [1] read?
Answer: 14.4 µM

Question: `CC(C)Oc1ccc(S(=O)(=O)NCC2(c3ccccc3)CC2(C)C)cn1` (stereo not shown) [Example 29, N-((2,2-dimethyl-1-phenylcyclopropyl)methyl)-6-isopropoxypyridine-3-sulfonamide] was tested. Which GI50 [1] did it give?
Answer: 78.7 µM

Question: How did the GI50 [1] turn out when `CC(C)Oc1ccc(S(=O)(=O)NC(c2cc(Cl)cc(Cl)c2)C2CCCCC2)cn1` (stereo not shown) [Example 30, N-(cyclohexyl(3,5-dichlorophenyl)methyl)-6-isopropoxypyridine-3-sulfonamide] was run?
Answer: 22.8 µM

Question: How did the GI50 [1] turn out when `CN(C)CC(NC(=O)c1ccc(OC(F)(F)F)cc1)c1ccc(Cl)c(Cl)c1` (stereo not shown) [Example 31, N-(1-(3,4-dichlorophenyl)-2-(dimethylamino)ethyl)-4-(trifluoromethoxy)benzamide] was run?
Answer: 41.9 µM

Question: `CN(C)CC(NC(=O)c1ccc(OC(F)(F)F)c([N+](=O)[O-])c1)c1ccc(Cl)c(Cl)c1` (stereo not shown) [Example 32, N-(1-(3,4-dichlorophenyl)-2-(dimethylamino)ethyl)-3-nitro-4-(trifluoromethoxy)benzamide] was tested. Which GI50 [1] did it give?
Answer: 2.1 µM

Question: With `O=C(NC1(c2ccc(Cl)cc2)CCNC1)c1ccc(OC(F)(F)F)cc1` (stereo not shown) [Example 33, N-(3-(4-chlorophenyl)pyrrolidin-3-yl)-4-(trifluoromethoxy)benzamide] as the compound, how does the GI50 [1] read?
Answer: 23.3 µM

Question: Which GI50 [1] does the source give for `CN(C)CC(c1ccc(Cl)c(Cl)c1)n1cc(-c2ccc(OC(F)(F)F)cc2)cn1` (stereo not shown) [Example 34, 2-(3,4-dichlorophenyl)-N,N-dimethyl-2-(4-(4-(trifluoromethoxy)phenyl)-1H-pyrazol-1-yl)ethan-1-amine] here?
Answer: 54.6 µM

Question: `CN(C)CC(c1ccc(Cl)c(Cl)c1)n1cnc(-c2ccc(OC(F)(F)F)cc2)c1` (stereo not shown) [Example 35, 2-(3,4-dichlorophenyl)-N,N-dimethyl-2-(4-(4-(trifluoromethoxy)phenyl)-1H-imidazol-1-yl)ethan-1-amine] was tested. Which GI50 [1] did it give?
Answer: 20.4 µM

Question: How did the GI50 [1] turn out when `FC(F)(F)Oc1ccc(-c2cn(C3(c4ccc(Cl)cc4)CCNC3)cn2)cc1` (stereo not shown) [Example 36, 1-(3-(4-chlorophenyl)pyrrolidin-3-yl)-4-(4-(trifluoromethoxy)phenyl)-1H-imidazole] was run?
Answer: 25.2 µM

Question: Which GI50 [1] does the source give for `FC(F)(F)Oc1ccc(-c2cnn(C3(c4ccccc4)CCNC3)c2)cc1` (stereo not shown) [Example 37, 1-(3-phenylpyrrolidin-3-yl)-4-(4-(trifluoromethoxy)phenyl)-1H-pyrazole] here?
Answer: 30.5 µM

Question: Which GI50 [1] does the source give for `O=S(=O)(Nc1ccc(OC(F)(F)F)cc1)C1(c2ccccc2)CCNCC1` [Example 38, 4-phenyl-N-(4-(trifluoromethoxy)phenyl)piperidine-4-sulfonamide] here?
Answer: 23 µM
